Results published in patent US5360613A, “Method of reducing blood levels of total cholesterol and low-density lipoprotein cholesterol” (Iowa State University Research Foundation, Inc., priority 1993, dated 1994).

Tests used:
aorta = experiment: Pig feeding study, aorta streaking (pre-atherosclerotic lesions) (Example III, Table C); assay type: in vivo, pigs; settings: for Aorta Streaking: 0 least severe to 3.2 most severe, control 1.87
Procedure: A further large mammal study was carried out with pigs. Pigs comprise test animals which are more similar in certain respects to humans than ruminants.
Control: 60 g. of calcium
The pigs were housed in pens of two animals each and were allowed ad libitum access to food and water. Pigs were approximately 160 lbs. at the start of the experiment and were 240 lbs. at the end. All pigs were castrate males. At day 28 and day 43 of the experiment blood was collected from the anterior vena cava by venipuncture. Blood was collected into EDTA containing tubes, centrifuged and frozen until analyzed. At approximately 100 days of the experiment half of the animals (32) were slaughtered, and at 120 days the remaining 32 animals were slaughtered. At the time of slaughter the abdominal aorta was dissected out and external fat removed. The aorta was then split lengthwise and 1/2 fixed in formaldehyde for 48 hours. At this time aortas were removed, stretched over a 6 inch stick, washed in ethanol and stained with a lipid stain for 2 hours. After a 1 hour wash aortas were blotted and examined. All the aortas from a group were laid out on a white bench and arranged in order from least sever to most sever. The least sever had no dark red streaks on the aorta or around the small vertebral vessels leaving the aorta. The most sever lesions had multiple streaks in the middle of the aorta and dark red deposits in turbulent areas such as the branching of vessels from the aorta. The ordered aortas were then assigned a consecutive decimal number. The first (least severe) was assigned 0 and the most severe was assigned 3.2 Plasma cholesterol and triglycerides were measured by an enzyme-colorimetric assay (Sigma).
statistical analysis was accomplished by the general linear model procedure of the Statistical Analysis System (SAS). The model included the main effects of treatment and pen number. T-tests were conducted from the ANOVA standard error, to compare the HMB treatments to the control. […] It appeared that HMB can partially prevent the formation of pre-atherosclerotic lesions. No effect of KIC was noted relative to any parameter.

[1] = Human dose-response study, body weight and body fat (Example V, Table E); assay type: in vivo, humans; settings: study combined with Example IV
Procedure: (§1) Higher dose levels than in Example IV of Ca-HMB were tested in humans. The objective was to obtain an indication of whether higher doses could be safely administered, and also whether higher doses might provide a greater reduction in total cholesterol and LDL cholesterol.
(§2) Normal humans were used in the study. Ca-HMB was administered in 250 mg capsules, and the subjects were instructed to take the capsules in 4 equal doses daily. No control of diet was attempted except they were instructed to eat as they normally would. On alternate days the subjects had blood drawn before the morning meal and before they took the morning HMB dose. Four subjects were studied for dose level of 05., 1, 2 and 4 grams per day.
Results from all samples of each subject were subjected to linear regression and the slope and intercept used to calculate the % change in concentration after 8 days on treatment. The percentage changes were then subjected to ANOVA-regression to determine if there was a linear effect of dosage on the parameter. The dose-response effect (p<) is listed in the linear effect column of Table E.

[2] = Human dose-response study, blood HMB (Example V); assay type: in vivo, humans
Procedure: as §1, §2

blood cholesterol = experiment: Controlled double-blind human study, blood cholesterol (Example IV, Table D); assay type: in vivo, humans
Procedure: (§3) In view of the findings of the foregoing examples, a human study was carried out.
(§4) In a controlled double-blind study, the effects of feeding HMB on loss of urinary nitrogen, blood cholesterol and immune function in normal humans were tested. This study also measured blood components that reflect liver, kidney and tissue metabolism. In addition further measurements of nitrogen metabolism and immune function were implemented. All measurements were made in a controlled dietary situation and under blinded conditions. Normal male subjects were used who had been screened for normalcy. Ca-HMB was administered in 250 mg capsules. The subjects were instructed to take the capsules in 4 equal doses daily (with meals and at bed time). The subject ate all their meals under controlled conditions. Normal diets were used, and the amount of the diets was controlled to maintain equal and substantially constant nitrogen intake. The subjects had blood drawn before the morning meal or before they took the morning HMB dose. Each subject was studied twice: once with a placebo and once with HMB.

[3] = test system: acetate incorporation into cholesterol; settings: added to the media at very high concentrations; cited from earlier work
[4] = Controlled double-blind human study, body weight, body fat and resting metabolic rate (Example IV, Table D); assay type: in vivo, humans
Procedure: as §3, §4

[5] = Human dose-response study, adverse effects (Example V); assay type: in vivo, humans; settings: 0.5 to 4 g per day
Procedure: as §1, §2

[6] = HMB change net of placebo-group change

In the case of `CC(C)(O)CC(=O)O` [HMB, β-hydroxy-β-methylbutyric acid], the “deposits of fat in the aorta” value (aorta; HMB-fed pigs) is reported as “lower deposits of fat in the aorta”, the “Aorta Streaking” value (aorta; dietary .01%, HMB C vs. .01% p .12) is reported as 1.23 and the “Aorta Streaking” value (aorta; dietary .05%, HMB p .06, KIC ns) is reported as 1.18. The “effect on body fat” value [1] was “extremely suggestive of an effect on body fat”, the “Blood HMB” value ([2]; 0.5 to 4 g per day) was “increased in a dose-responsive manner” and the “increase in blood HMB” value ([2]; 4 grams per day) was “very large increase”. The “increase of HDL cholesterol” value (blood cholesterol; 2 g of HMB daily for two weeks) was 11%, the “reduction of LDL cholesterol” value (blood cholesterol; 2 g of HMB daily for two weeks) was 10% and the “reduction of total cholesterol” value (blood cholesterol; 2 g of HMB daily for two weeks) was 6%. The “% Net Effect HMB, HDL Cholesterol” value (blood cholesterol; [6]) was 11%, the “% Net Effect HMB, LDL Cholesterol” value (blood cholesterol; [6]) was -10% and the “% Net Effect HMB, LDL/HDL” value (blood cholesterol; [6]) was -25%. The “% Net Effect HMB, Total Cholesterol” value (blood cholesterol; [6]) was -6%, the “% Change Trt. HDL Cholesterol” value (blood cholesterol; control to HMB treatment) was 3% and the “% Change Trt. LDL Cholesterol” value (blood cholesterol; control to HMB treatment) was -8%. For the same compound, the “% Change Trt. LDL/HDL” value (blood cholesterol; control to HMB treatment) was -12%, the “% Change Trt. Total Cholesterol” value (blood cholesterol; control to HMB treatment) was -10% and the “decrease of ratio of LDL to HDL” value (blood cholesterol; in two weeks) was 25%. For the same compound, the “LDL cholesterol” value (blood cholesterol; treated group on HMB, Ca HMB 1.0 grams/24 hours, calculated, pre-treatment control 118) was 107, the LDL/HDL (blood cholesterol; treated group on HMB, Ca HMB 1.0 grams/24 hours, pre-treatment control 2.38) was 2.10 and the “HDL cholesterol” value (blood cholesterol; treated group on HMB, Ca HMB 1.0 grams/24 hours, pre-treatment control 49.5) was 50.9. For the same compound, the “Total cholesterol” value (blood cholesterol; treated group on HMB, Ca HMB 1.0 grams/24 hours, pre-treatment control 187) was 169, the “inhibition of acetate incorporation” value [3] was “no significant inhibition” and the “% Net Effect HMB, % Body fat” value [4, 6] was -9%. The “% Net Effect HMB, Resting metabolic rate” value [4, 6] was 0%, the “% Net Effect HMB, Weight” value [4, 6] was 1.4% and the Body weight ([4]; HMB treatment) was “did not change”. For the same compound, the body fat ([4]; HMB treatment) was “did not change”, the resting metabolic rate ([4]; HMB treatment) was “did not change” and the “% Change Trt. % Body fat” value ([4]; control to HMB treatment) was -12%. The “% Change Trt. Resting metabolic rate” value ([4]; control to HMB treatment) was 4%, the “% Change Trt. Weight” value ([4]; control to HMB treatment) was 1.4% and the “% Body fat (skin fold)” value ([4]; treated group on HMB, Ca HMB 1.0 grams/24 hours, pre-treatment control 12.5) was 11.0%. For the same compound, the resting metabolic rate ([4]; treated group on HMB, Ca HMB 1.0 grams/24 hours, pre-treatment control 74.8) was 77.8 KCal/mw, the Weight ([4]; treated group on HMB, Ca HMB 1.0 grams/24 hours, pre-treatment control 176) was 179 lbs and the adverse affects [5] was “no adverse affects”. The “complaint noted with several patients” value [5] was “being hungrier than normal”.
